Read-outs that look alike come from different tables or passages of the source.
How the values were obtained:
[1] = Solubility in water, saturated suspension filtered and measured by HPLC; assay type: physicochemical; conditions: for solubility: thermodynamic from solid; for water solubility compared with the corresponding neutral or monosalt compounds: result in words
Method: A compound was weighed and water was added to the compound such that the resulting concentration of the compound was about 100 mg/mL. The mixture was then shaken well and sonicated (about 5-10 min at about 50° C.). If the added amounts of the compound were totally solubilized, more amounts of the compound were added to the solution and the mixture was shaken well and sonicated until a suspension was achieved. The suspension was then filtered through a 0.2 μm filter. The filtered solution was diluted with DMSO. Then the mixture was analyzed by HPLC to determine the concentration of the compound.
The HPLC system consisted of the HP 1100 Model (Agilent, Wilmington, Del.) equipped with a model 1100 quaternary pump, a model 1100 autosampler, a model 1100 Diode-Array Detector for UV detection at 280 nm. HPLC analysis was performed using a gradient mobile phase consisting of acetonitrile-water containing 0.1% formic acid. Mobile phases were degassed and filtered through a solvent filtration apparatus and pumped at a constant rate of 1.0 mL/min. Separation was made on an XTerra MS C18 analytical column, 4.6 mm i.d.×150 mm, (Waters Corp., Milford, Mass., USA) fitted with a pre-column filter (XTerra MS C18, 3.9 mm×20 mm). The column was maintained at 40° C.

[2] = Pharmacokinetics study in dog, bioavailability AUCpo/AUCiv; assay type: in vivo
Method: Male beagle dogs were acclimated for at least one week prior to use, were fed laboratory chow and water ad libitum, and were housed in temperature and humidity controlled rooms. Compounds were prepared as a solution for intravenous injection or a capsule for oral administration. Three dogs were used for the study. Compounds were injected intravenously via cephalic vein or by oral gavage. The dose was adjusted based on the animal's body weight. Blood samples were collected at intervals of 5, 10 and 30 min and 1, 2, 4, 6, 8 and 24 hr (example) after administration of the compound and plasma samples were prepared after centrifugation (5000 rpm, 8 min) of whole blood samples. Compound in plasma was measured by a liquid chromatography with tandem mass spectrophotometer (LC/MS/MS) after 50 μl of these samples were extracted by protein precipitation with acetonitrile. The compound concentration was determined by the standard curve (concentration vs. peak area) made with the same extraction procedure of controlled plasma. The area under curve (AUC) was calculated using the modified trapezoidal method. The portion of AUC from the last measurable plasma concentration to infinity was estimated by C/k, where k was expressed by the least square regression of the log-linear concentration time points and C represents the last measurable plasma concentration. Bioavailability was calculated by AUCpo/AUCiv.
Compounds (1) and (3) and its internal standard were extracted from heparinized plasma by protein precipitation with acetonitrile. Chromatography was achieved on an XTerra column (Waters, particle size: 5 μm; 100 mm×3.0 mm i.d.) using a mixture of acetonitrile, water and formic acid. Analysis was performed on a Sciex API 365 tandem mass spectrometer with turbo ion spray interface. Negative ions were measured using the multiple-reaction-monitoring (MRM) mode with m/z 399.0→165.1. The run time was 9 min per sample, and Compounds (1) and (3) were quantitated by a peak area ratio using 1/×^2-weighted least-square linear regression plot.

[3] = water, shaken and sonicated about 5-10 min at about 50° C., filtered 0.2 μm, HPLC, read-out: Solubility in water
[4] = water, shaken and sonicated about 5-10 min at about 50° C., filtered 0.2 μm, HPLC

Molecule | solubility [1, 3] [mg/mL] | water solubility compared with the corresponding neutral or monosalt compounds [1] | other results
CN(/N=C(\[O-])CC(=O)NN(C)C(=S)c1ccccc1)C(=S)c1ccccc1.[K+] [Compound 10, Monopotassium; 2-(N′-methyl-N′-thiobenzoyl-hydrazinocarbonyl)-1-(methyl-thiobenzoyl-hydrazono)-ethanolate] | 41.2 |  | 
CN(NC(=O)CC(=O)NN(C)C(=S)c1ccccc1)C(=S)c1ccccc1 [Compound 1, Disodium; 2-(N′-methyl-N′-thiobenzoyl-hydrazinocarbonyl)-1-(methyl-thiobenzoyl-hydrazono)-ethanolate] |  | significantly greater water solubility | solubility ([1]; 50 °C, water, read-out: water solubility): > 1000 mg/mL; Solubility in water [1, 4]: >1000 mg/mL; bioavailability ([2]; male, beagle, plasma, oral, see Example 16 (dog), read-out: bioavailability): 80%
CN(/N=C(\[O-])C/C([O-])=N/N(C)C(=S)C1CC1)C(=S)C1CC1.[Na+].[Na+] [Compound 13, Disodium; 2-(N′-methyl-N′-thiocyclopropyl-hydrazinocarbonyl)-1-(methyl-thiocyclopropyl-hydrazono)-ethanolate] | > 1000 | significantly greater water solubility | 
CN(/N=C(\[O-])CC(=O)NN(C)C(=S)c1ccccc1)C(=S)c1ccccc1.[Li+] [Compound 4, Lithium; 2-(N′-methyl-N′-thiobenzoyl-hydrazinocarbonyl)-1-(methyl-thiobenzoyl-hydrazono)-ethanolate] | 53.5 |  | 
CN(NC(=O)CC(=O)NN(C)C(=S)c1ccccc1)C(=S)c1ccccc1 [Neutral Form of Compound 1, N-Malonyl-bis(N′-thiobenzoyl-N′-methyl hydrazide)] |  |  | water solubility ([1]; water, listed as neutral form of Compounds (1) and (2)): about 0.1 mg/ml; Solubility in water [1, 4]: <0.1 mg/mL; bioavailability ([2]; male beagle dogs, capsule oral vs intravenous solution, AUCpo/AUCiv): 4.8%; bioavailability ([2]; see Example 16 (dog)): 4.8%
CN(/N=C(\[O-])CC(=O)NN(C)C(=S)c1ccccc1)C(=S)c1ccccc1.[Na+] [Compound 3, Sodium; 2-(N′-methyl-N′-thiobenzoyl-hydrazinocarbonyl)-1-(methyl-thiobenzoyl-hydrazono)-ethanolate] | 52.8 |  | bioavailability ([2]; dog, plasma, male beagle dogs, capsule oral vs intravenous solution, AUCpo/AUCiv, read-out: Bioavailability): 35%
CN(/N=C(\[O-])C/C([O-])=N/N(C)C(=S)C1(C)CC1)C(=S)C1(C)CC1.[Na+].[Na+] [Compound 12, Disodium; 2-(N′-methyl-N′-thio-1-methylcyclopropyl-hydrazinocarbonyl)-1-(methyl-thio-1-methylcyclopropyl-hydrazono)-ethanolate] | > 1000 | significantly greater water solubility | 
Cholin; 2-(N′-methyl-N′-thiobenzoyl-hydrazinocarbonyl)-1-(methyl-thiobenzoyl-hydrazono)-ethanolate [Compound 11] |  |  | Solubility in water [1, 4]: 264.0 (>200) mg/mL
CN(/N=C(\[O-])C/C([O-])=N/N(C)C(=S)C1(C)CC1)C(=S)C1(C)CC1.[K+].[K+] [Compound 14, Dipotassium; 2-(N′-methyl-N′-thio-1-methylcyclopropyl-hydrazinocarbonyl)-1-(methyl-thio-1-methylcyclopropyl-hydrazono)-ethano late] | > 1000 | significantly greater water solubility | 
CN(/N=C(\[O-])C/C([O-])=N/N(C)C(=S)c1ccccc1)C(=S)c1ccccc1.[Li+].[Li+] [Compound 5, Dilithium; 2-(N′-methyl-N′-thiobenzoyl-hydrazinocarbonyl)-1-(methyl-thiobenzoyl-hydrazono)-ethanolate] | 626 | significantly greater water solubility | 
CN(/N=C(\[O-])C/C([O-])=N/N(C)C(=S)c1ccccc1)C(=S)c1ccccc1.[Mg+2] [Compound 8, Magnesium; 2-(N′-methyl-N′-thiobenzoyl-hydrazinocarbonyl)-1-(methyl-thiobenzoyl-hydrazono)-ethanolate] | 43.5 |  | 

From patent US8048925B2, “Bis(thio-hydrazide amide) salts for treatment of cancers” (Synta Pharmaceuticals Corp., priority 2004, dated 2011)
